The values below come from ChEMBL document CHEMBL1201862, “PubChem BioAssay data set” (2004).

The target in assay [1] is T1, Coagulation factor XII (Homo sapiens, UniProt P00748).
T1 sequence (P00748 whole entry): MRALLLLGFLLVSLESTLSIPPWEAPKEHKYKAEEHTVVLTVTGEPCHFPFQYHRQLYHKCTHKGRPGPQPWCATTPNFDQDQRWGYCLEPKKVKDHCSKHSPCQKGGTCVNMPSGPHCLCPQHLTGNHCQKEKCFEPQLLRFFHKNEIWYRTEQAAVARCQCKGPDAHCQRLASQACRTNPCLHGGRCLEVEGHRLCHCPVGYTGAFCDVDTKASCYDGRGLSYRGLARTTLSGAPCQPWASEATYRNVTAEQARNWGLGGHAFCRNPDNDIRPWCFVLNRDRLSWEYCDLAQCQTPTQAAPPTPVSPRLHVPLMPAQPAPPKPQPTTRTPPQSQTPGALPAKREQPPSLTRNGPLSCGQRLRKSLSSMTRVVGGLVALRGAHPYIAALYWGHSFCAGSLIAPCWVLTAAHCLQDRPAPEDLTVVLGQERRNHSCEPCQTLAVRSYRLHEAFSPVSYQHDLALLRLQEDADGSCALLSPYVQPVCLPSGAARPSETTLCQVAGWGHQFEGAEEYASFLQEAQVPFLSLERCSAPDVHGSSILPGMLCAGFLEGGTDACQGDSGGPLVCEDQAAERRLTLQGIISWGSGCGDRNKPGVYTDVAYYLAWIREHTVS
The experiment in a line: Factor XIIa Dose Response Confirmation from Single Well HTS. [Related pubchem assays (depositor defined):AID701]. The class given is functional.

In assay [2] the test system is H9c2. The experiment in a line: cells. The format is functional, cell-based. Conditions: Rattus norvegicus, H9c2, Myocardium.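 Further: confirmatory concentration-response retest of ultra-high-throughput screening hits for modulation of myocardial damage; cell death induced by hydrogen peroxide oxidative stress; compound pretreatment for 60 min then peroxide exposure for 2 h; potency is for protecting the cells against peroxide damage rather than for killing them.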
Assay [3] deals with Signal transducer and activator of transcription 1-alpha/beta (Homo sapiens, UniProt P42224). Kind of assay: STAT3 inhibitors, late-stage profile, late-stage follow-up, cell-based, STAT1 panel, qPCR, cytotoxicity, panel member STAT1 Inhibition (AID 2078).
Assay [4] addresses Signal transducer and activator of transcription 3 (Homo sapiens, UniProt P40763). Kind of assay: STAT3 inhibitors, late-stage profile, late-stage follow-up, cell-based, STAT1 panel, qPCR, cytotoxicity, panel member STAT3 Inhibition (AID 2078). (Real-time PCR tracks product formation cycle by cycle.)
The target in assay [5] is Mucolipin-3 (Homo sapiens, UniProt Q8TDD5). Kind of assay: Fluorescence counterscreen assay for […] agonists: dose response cell-based high-throughput screening assay to identify agonists of the transient receptor potential channel ML3 (TRPML3). [Related pubchem assays: 1424, 1448 ]. The format is functional.
In assay [6] the target is Ion channel NompC (Danio rerio, UniProt Q7T1G6). The experiment in a line: Dose response cell-based high-throughput screening assay for agonists of the transient receptor potential channel N1 (TRPN1). [Related pubchem assays (depositor defined):AID1424, AID1448]. The class given is functional.
For assay [7], the target named is T2, Corticotropin-releasing factor receptor 2/Corticotropin-releasing factor-binding protein (Homo sapiens, UniProt P24387+Q13324).
T2 sequence (Q13324 whole entry): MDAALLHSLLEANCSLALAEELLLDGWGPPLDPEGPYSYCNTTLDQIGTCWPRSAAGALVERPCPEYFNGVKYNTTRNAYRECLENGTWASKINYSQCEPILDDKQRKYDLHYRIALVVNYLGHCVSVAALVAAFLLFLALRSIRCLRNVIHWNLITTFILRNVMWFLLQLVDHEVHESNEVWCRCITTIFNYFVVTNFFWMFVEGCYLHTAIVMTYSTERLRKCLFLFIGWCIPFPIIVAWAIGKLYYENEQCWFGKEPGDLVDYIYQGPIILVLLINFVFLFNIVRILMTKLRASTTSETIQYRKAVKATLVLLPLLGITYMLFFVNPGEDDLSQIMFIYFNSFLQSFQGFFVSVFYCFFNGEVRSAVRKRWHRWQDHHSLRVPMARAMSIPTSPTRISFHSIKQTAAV
T2 sequence (P24387 whole entry): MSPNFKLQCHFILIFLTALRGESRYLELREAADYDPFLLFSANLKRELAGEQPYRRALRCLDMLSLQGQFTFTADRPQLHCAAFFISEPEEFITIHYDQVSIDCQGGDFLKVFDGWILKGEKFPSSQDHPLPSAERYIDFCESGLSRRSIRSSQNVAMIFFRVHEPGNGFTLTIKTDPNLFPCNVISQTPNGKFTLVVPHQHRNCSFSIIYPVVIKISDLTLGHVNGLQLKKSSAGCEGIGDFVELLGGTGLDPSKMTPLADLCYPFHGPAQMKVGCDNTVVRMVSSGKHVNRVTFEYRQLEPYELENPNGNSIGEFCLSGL
Kind of assay: activators of CRF receptor 2 with binding protein – uHTS hits, confirmation (AID 602473). As to conditions: read-out: EC50_Mean. The format is functional.

The target in assay [8] is T3, Replicative DNA helicase DnaB (Mycobacterium tuberculosis, UniProt P9WMR3).
T3 sequence (P9WMR3 whole entry): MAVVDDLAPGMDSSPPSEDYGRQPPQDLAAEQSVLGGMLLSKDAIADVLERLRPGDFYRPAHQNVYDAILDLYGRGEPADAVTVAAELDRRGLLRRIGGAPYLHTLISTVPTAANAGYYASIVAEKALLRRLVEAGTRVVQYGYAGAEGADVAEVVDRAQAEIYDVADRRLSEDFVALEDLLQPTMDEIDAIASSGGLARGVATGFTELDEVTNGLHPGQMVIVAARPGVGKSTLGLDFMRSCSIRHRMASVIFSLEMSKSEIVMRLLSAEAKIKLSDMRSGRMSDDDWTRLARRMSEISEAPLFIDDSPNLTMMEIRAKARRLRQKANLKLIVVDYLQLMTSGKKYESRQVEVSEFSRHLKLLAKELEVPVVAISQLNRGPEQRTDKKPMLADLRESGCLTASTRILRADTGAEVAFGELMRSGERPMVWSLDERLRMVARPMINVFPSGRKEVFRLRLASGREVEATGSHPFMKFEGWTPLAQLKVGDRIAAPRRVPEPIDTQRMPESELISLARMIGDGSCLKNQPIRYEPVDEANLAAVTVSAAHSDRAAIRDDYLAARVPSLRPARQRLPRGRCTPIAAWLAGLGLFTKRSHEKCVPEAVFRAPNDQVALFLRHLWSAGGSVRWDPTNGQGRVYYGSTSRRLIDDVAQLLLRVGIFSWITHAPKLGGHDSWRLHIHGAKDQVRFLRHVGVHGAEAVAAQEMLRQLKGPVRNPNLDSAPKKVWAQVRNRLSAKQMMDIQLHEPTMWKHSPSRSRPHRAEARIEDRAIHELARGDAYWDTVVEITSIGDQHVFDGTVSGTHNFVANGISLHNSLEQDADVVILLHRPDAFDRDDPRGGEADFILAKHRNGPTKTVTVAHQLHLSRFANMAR
The experiment in a line: DnaB intein splicing inhibitors, dose response, biochemical, cell-free fluorescence (AID 449749). The format is functional.

Assay [9] can be described thus: Intein inhibitors as potential Tuberculosis drugs, a cytotoxicity screen. [Related pubchem assays (depositor defined):AID2221, AID2223, AID434968, AID435010, AID449749, AID449750, AID489010]. The class given is functional.
Assay [10] deals with T4, Protein RecA (Mycobacterium tuberculosis, UniProt P9WHJ3).
T4 sequence (P9WHJ3 whole entry): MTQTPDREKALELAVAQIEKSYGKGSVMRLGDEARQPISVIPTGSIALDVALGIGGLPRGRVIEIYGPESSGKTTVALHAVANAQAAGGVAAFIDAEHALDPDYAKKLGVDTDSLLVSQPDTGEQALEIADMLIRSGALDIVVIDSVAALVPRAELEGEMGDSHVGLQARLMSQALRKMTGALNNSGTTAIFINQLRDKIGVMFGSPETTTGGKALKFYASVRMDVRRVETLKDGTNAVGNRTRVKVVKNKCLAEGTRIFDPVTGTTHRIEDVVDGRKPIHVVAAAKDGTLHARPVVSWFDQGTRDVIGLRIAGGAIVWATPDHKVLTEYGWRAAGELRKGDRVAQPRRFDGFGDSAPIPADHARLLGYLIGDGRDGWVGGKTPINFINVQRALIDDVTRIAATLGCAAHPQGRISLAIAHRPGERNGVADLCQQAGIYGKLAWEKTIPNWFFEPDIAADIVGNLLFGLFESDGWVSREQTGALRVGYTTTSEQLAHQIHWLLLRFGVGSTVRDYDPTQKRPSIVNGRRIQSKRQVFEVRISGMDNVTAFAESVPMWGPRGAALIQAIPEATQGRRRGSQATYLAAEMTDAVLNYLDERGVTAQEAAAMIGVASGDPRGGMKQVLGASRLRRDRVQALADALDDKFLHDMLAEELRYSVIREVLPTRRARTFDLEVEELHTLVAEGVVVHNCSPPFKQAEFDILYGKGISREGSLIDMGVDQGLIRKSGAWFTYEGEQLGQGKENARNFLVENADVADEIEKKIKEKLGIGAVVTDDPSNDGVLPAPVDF
The experiment in a line: Fluorescence Cell-Free Homogeneous Dose Retest to Identify Inhibitors of RecA-Intein Splicing Activity. [Related pubchem assays (depositor defined):AID2097, AID2223, AID489010, AID492950]. The class given is functional.

The target of assay [11] is T5, Runt-related transcription factor 1/Core-binding factor subunit beta (Homo sapiens, UniProt Q01196+Q13951). The experiment in a line: inhibitors of RUNX1 Runt–CBFb-SMMHC binding, biochemical, TR-FRET (AID 1438). The class given is protein assay.
The target in assay [12] is T5, Runt-related transcription factor 1/Core-binding factor subunit beta. The experiment in a line: inhibitors of RUNX1 Runt–CBFb-SMMHC binding, primary screen, biochemical, FRET, Cerulean-Runt, Venus-CBFb-SMMHC, uHTS (AID 1434).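 Further: partner is the CBFb-SMMHC leukemia fusion protein rather than wild-type CBFb.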 The class given is protein assay.
Assay [13] concerns the target Tumor necrosis factor (Homo sapiens, UniProt P01375). Kind of assay: TNFa-triggered NF-kB activation inhibitors, SAR follow-up, cell-based, set 3 (AID 2801). The class given is functional.
For assay [14], the target named is Nucleotide-binding oligomerization domain-containing protein 2 (Homo sapiens, UniProt Q9HC29). Kind of assay: NOD2 signaling inhibitors, analog potency, SAR follow-up, cell-based, set 3 (AID 2799). The class given is functional.
Assay [15] concerns HEK293. Kind of assay: SAR analysis of compounds that are cytotoxic to HEK293 - Set 3. [Related pubchem assays (depositor defined):AID1575, AID1578, AID1848, AID1849, AID2001, AID2333, AID2334, AID2335, AID2337, AID2469]. The class given is functional, cell-based. As to conditions: Homo sapiens.
Assay [16] deals with Nucleotide-binding oligomerization domain-containing protein 1 (Homo sapiens, UniProt Q9Y239). The experiment in a line: SAR analysis of compounds that inhibit NOD1 - Set 3. [Related pubchem assays (depositor defined):AID1566, AID1575, AID1578, AID1849, AID1852, AID2333, AID2335, AID2466]. The class given is functional.
In assay [17] the target is T6, Kappa-type opioid receptor (Homo sapiens, UniProt P41145). The experiment in a line: SAR analysis of small molecule antagonists of the kappa opioid receptor via a luminescent beta-arrestin assay - Set 4. [Related pubchem assays (depositor defined):AID1777, AID1778, AID1785, AID1786, AID1966, AID2133, AID2136, AID2285]. The format is functional.
Assay [18] has as its target T6, Kappa-type opioid receptor. The experiment in a line: SAR analysis of small molecule antagonists of the kappa opioid receptor via a luminescent beta-arrestin assay - Set 5. [Related pubchem assays (depositor defined):AID1778, AID1785]. The class given is functional.

Structures are written as SMILES. Activity calls are given as the source filed them. Where only a bound is given, the exact number is not on record here.

Usually IC50 stands for the midpoint of a concentration-inhibition curve. The term AC50 denotes the midpoint of the concentration-response curve, whichever way the signal moves. What is called CC50 is the concentration giving 50% cytotoxicity.
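Wherever CC50 is given: cells exposed to compound for 72 hours before luminescence readout.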

T6 sequence (P41145 whole entry): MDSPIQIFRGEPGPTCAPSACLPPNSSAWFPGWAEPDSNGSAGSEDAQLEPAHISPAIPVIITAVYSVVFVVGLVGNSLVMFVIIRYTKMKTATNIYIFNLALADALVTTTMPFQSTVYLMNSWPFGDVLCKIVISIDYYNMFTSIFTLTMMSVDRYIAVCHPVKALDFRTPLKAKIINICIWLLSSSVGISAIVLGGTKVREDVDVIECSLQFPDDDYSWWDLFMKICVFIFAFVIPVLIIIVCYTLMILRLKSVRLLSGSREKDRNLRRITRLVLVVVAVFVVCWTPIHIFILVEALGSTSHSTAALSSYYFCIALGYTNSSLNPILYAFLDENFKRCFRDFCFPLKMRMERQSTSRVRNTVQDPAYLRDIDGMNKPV
T5 sequence (Q01196 whole entry, the tested form may be a part): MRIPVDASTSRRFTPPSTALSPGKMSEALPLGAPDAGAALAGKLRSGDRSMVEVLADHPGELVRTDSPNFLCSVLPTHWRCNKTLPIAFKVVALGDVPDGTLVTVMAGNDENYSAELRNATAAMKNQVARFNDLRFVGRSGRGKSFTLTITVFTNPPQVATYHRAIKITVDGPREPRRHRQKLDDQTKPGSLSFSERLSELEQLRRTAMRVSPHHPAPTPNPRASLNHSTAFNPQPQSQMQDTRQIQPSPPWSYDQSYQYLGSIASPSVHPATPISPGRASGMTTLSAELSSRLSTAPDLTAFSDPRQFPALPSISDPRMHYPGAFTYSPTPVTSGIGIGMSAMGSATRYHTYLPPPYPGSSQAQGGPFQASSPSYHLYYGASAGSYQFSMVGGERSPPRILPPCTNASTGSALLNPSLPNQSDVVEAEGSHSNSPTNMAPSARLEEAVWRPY
T5 sequence (Q13951 whole entry, the tested form may be a part): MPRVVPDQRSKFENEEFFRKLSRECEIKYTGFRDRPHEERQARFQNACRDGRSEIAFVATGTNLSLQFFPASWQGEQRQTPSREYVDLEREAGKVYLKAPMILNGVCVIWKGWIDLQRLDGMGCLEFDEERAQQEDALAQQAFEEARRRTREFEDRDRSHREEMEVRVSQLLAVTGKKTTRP
Nucleotide-binding oligomerization domain-containing protein 2, sequence (Q9HC29 whole entry, the tested form may be a part): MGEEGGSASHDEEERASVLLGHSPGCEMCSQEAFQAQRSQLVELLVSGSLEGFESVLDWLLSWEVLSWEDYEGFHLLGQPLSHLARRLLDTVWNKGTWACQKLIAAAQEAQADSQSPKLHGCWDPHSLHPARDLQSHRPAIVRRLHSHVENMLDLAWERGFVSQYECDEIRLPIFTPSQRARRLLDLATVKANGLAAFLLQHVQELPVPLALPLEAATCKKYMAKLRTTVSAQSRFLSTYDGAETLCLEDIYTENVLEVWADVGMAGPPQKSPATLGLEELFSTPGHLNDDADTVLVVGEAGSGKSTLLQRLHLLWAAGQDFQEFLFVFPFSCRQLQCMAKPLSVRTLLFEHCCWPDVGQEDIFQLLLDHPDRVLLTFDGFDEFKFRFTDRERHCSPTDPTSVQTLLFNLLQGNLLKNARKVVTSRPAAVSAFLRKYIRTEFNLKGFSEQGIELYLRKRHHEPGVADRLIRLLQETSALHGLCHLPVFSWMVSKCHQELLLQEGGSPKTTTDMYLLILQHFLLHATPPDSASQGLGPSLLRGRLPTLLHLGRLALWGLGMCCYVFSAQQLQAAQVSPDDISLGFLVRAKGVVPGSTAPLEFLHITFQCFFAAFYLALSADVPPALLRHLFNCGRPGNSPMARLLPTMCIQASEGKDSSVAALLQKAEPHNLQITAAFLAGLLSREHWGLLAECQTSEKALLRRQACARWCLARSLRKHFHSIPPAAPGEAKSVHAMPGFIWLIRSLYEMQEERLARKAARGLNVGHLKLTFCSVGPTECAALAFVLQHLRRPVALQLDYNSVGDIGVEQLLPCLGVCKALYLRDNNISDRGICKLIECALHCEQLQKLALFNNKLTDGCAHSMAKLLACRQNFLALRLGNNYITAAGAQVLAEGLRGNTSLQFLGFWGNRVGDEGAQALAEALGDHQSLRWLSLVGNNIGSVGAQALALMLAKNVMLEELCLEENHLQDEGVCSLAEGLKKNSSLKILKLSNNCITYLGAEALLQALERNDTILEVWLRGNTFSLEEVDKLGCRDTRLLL
Mucolipin-3, sequence (Q8TDD5 whole entry): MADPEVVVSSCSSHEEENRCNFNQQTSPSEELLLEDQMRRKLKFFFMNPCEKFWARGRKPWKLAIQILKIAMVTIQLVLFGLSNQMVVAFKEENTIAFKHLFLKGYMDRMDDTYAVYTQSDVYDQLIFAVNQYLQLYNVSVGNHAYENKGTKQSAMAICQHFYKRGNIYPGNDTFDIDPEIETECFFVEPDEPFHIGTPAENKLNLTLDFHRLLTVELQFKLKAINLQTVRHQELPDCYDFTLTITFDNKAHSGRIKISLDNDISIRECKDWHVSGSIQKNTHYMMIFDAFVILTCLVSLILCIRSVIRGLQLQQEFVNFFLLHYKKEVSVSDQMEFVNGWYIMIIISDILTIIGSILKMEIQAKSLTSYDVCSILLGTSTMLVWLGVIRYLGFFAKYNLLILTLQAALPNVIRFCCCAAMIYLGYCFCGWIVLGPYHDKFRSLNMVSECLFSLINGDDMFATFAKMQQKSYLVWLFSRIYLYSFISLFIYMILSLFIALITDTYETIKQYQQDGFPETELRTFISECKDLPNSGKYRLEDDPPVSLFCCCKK
Signal transducer and activator of transcription 1-alpha/beta, sequence (P42224 whole entry): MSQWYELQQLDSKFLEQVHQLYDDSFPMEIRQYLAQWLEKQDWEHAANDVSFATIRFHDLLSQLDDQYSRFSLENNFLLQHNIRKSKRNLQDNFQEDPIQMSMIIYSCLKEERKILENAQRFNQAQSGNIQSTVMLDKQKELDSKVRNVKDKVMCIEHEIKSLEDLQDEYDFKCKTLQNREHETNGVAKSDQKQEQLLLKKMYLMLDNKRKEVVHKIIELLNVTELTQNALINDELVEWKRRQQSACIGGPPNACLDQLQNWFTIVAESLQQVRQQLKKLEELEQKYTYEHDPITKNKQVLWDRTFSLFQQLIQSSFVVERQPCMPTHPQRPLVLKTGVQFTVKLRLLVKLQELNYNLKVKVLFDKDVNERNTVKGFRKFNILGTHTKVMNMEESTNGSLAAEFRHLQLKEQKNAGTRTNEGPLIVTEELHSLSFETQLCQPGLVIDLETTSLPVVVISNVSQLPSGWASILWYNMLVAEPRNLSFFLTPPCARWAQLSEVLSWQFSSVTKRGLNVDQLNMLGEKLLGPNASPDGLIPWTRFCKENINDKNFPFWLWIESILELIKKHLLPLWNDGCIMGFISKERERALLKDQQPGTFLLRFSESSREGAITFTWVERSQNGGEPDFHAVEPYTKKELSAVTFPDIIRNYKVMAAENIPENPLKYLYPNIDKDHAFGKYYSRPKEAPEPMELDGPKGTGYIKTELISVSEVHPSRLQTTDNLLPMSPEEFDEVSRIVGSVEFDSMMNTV
Signal transducer and activator of transcription 3, sequence (P40763 whole entry): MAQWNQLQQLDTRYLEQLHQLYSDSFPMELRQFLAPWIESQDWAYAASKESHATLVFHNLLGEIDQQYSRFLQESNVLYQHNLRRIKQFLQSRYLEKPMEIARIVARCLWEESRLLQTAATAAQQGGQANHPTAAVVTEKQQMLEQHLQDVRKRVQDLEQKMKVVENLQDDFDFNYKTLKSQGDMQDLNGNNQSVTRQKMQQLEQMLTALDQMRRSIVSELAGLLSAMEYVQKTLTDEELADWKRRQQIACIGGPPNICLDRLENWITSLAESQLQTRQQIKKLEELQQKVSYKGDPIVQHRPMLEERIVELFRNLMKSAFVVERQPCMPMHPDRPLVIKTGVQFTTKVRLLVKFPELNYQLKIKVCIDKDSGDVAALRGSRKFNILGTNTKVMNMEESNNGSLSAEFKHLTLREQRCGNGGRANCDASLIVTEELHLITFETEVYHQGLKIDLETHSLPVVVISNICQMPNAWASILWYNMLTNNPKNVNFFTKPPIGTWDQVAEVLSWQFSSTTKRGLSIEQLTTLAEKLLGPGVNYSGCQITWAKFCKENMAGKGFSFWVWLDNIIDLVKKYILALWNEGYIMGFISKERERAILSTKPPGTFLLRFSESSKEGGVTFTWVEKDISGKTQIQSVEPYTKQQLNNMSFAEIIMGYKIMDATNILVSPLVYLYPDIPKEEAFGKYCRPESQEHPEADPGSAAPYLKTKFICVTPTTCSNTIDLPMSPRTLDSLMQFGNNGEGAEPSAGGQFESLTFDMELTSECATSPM
Tumor necrosis factor, sequence (P01375 whole entry, the tested form may be a part): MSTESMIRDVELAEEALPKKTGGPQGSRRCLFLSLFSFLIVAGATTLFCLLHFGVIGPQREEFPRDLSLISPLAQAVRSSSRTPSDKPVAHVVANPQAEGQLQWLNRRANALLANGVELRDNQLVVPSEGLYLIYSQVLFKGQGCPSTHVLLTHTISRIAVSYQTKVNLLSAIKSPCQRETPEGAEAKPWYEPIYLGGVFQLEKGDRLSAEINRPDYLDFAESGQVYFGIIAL

Regarding `CC(=O)Oc1ccc2c(C)cc(=O)oc2c1`, the IC50 was > 50 µM (inconclusive) in [1] and 16.5 µM (active) in assay [2].

On to `c1ccc(CC2CCN(c3ncnc4sc(-c5ccccc5)cc34)CC2)cc1`, for which the IC50 in assay [3] and in assay [4] was > 55.7 µM (inactive) each time.

Turning to `COc1cccc(CN2CCN(Cc3cc4ccccc4[nH]3)CC2CCO)c1` (stereo not drawn), the EC50 in assay [5] is 5.42 µM (active); in [6], 5.32 µM (active); in assay [7] it was 15.1 µM (active).

For the compound `N#CC1=C(N)Oc2[nH]nc(-c3ccccc3)c2C1c1cccc(OC(=O)N2CCOCC2)c1` (stereo not drawn), the concentration at half-maximal activity (AC50) in [8] was 4.72 µM (active). In addition, in [9], the CC50 is 31.4 µM (active). For the same compound, the EC50 in assay [10] is 1.19 µM (active).

In the case of `Cc1cc(O)ccc1Nc1nc2ccccc2nc1Nc1ccc(O)cc1C`, the IC50 in assay [11] is 7.08 µM (active); in assay [12], 9.73 µM (active).

Take `CC(C)c1ccc(S(=O)(=O)n2c(N)nc3ccccc32)cc1`: the IC50 is > 20 µM (inactive) in assay [13], > 20 µM (inactive) in assay [14], > 20 µM (inactive) in assay [15] and 0.495 µM (active) in [16].

On to `CC(C)N(CCNC(=O)c1ccc(CNS(=O)(=O)c2ccc(C#N)cc2)cc1)Cc1ccccc1`, for which the values for the IC50 in assay [17] and in [18] were 3.54 µM (active) and 1.36 µM (active), respectively.
